Common to all, as to assay type: biochemical
The target of assay [1] is T1, VEGFR3 (Homo sapiens, UniProt P35916).
T1 construct: purchased Millpore Corp. (Millipore) 14-681
Nature of the assay: VEGFR3 enzyme activity assay (Caliper LC3000 mobility shift). As to conditions: 400 uM ATP (Km), 0.4 nM VEGFR3, 90 minutes at RT. The protocol:
(§1) Enzyme activity for VEGFR3, VEGFR2 and Flt3 were measured on the Caliper Life Sciences LC3000 (Hopkinton, Mass.). The system utilizes the principle of electroosmotic flow to separate and quantify the amount of phosphorylated-Fluorescein-labelled-peptide (product) from unphosphorylated-Fluorescein-labelled peptide (substrate). The amount of product and substrate are determined by measuring the peak heights from the electropherogram. The enzyme activity is then quantified by dividing the amount of product by the sum of the product and substrate. The inhibitory activity of a sample is measured by comparing the enzyme activity in the presence of sample versus the enzyme activity in the presence of dimethylsufoxide (DMSO). Specific assay conditions for each enzyme are listed below:
VEGFR3 assay: The peptide substrate at 1 uM (FITC-KKKKEEIYFFF-CONH2; synthesized at Tufts University, Boston, Mass.) was incubated with 400 uM of ATP, corresponding to the Michaelis-Menten (Km) constant of the enzyme/substrate reaction, and 0.4 nM of VEGFR3 (Millpore Corp., Cat. No. 14-681) for 90 minutes at RT. After 90 minutes, the reaction was stopped by the addition of 10 mM EDTA. The substrate and product were then separated on the LC3000.

Assay [2] addresses T2, VEGFR2 (Homo sapiens, UniProt P35968).
T2 construct: purchased BPS Bioscience; San Diego, Calif; 40301
Nature of the assay: VEGFR2 enzyme activity assay (Caliper LC3000 mobility shift). As to conditions: 160 uM ATP (Km), 1 nM VEGFR2, 90 minutes at RT. As for the experimental part:
as §1
VEGFR2 assay: The peptide substrate at 1 uM (5-FL-EEPLYWSFPAKKK-CONH2; synthesized at Tufts University, Boston, Mass.) was incubated with 160 uM of ATP, corresponding to the Michaelis-Menten (Km) constant of the enzyme/substrate reaction, and 1 nM of VEGFR2 (BPS Bioscience; San Diego, Calif.; Cat. No. 40301) for 90 minutes at RT. After 90 minutes, the reaction was stopped by the addition of 10 mM EDTA. The substrate and product were then separated on the LC3000.

Assay [3] concerns the target T3, Flt3 (Homo sapiens, UniProt P36888).
T3 construct: purchased BPS Bioscience; San Diego, Calif; 40225
T3 sequence (P36888 27-993): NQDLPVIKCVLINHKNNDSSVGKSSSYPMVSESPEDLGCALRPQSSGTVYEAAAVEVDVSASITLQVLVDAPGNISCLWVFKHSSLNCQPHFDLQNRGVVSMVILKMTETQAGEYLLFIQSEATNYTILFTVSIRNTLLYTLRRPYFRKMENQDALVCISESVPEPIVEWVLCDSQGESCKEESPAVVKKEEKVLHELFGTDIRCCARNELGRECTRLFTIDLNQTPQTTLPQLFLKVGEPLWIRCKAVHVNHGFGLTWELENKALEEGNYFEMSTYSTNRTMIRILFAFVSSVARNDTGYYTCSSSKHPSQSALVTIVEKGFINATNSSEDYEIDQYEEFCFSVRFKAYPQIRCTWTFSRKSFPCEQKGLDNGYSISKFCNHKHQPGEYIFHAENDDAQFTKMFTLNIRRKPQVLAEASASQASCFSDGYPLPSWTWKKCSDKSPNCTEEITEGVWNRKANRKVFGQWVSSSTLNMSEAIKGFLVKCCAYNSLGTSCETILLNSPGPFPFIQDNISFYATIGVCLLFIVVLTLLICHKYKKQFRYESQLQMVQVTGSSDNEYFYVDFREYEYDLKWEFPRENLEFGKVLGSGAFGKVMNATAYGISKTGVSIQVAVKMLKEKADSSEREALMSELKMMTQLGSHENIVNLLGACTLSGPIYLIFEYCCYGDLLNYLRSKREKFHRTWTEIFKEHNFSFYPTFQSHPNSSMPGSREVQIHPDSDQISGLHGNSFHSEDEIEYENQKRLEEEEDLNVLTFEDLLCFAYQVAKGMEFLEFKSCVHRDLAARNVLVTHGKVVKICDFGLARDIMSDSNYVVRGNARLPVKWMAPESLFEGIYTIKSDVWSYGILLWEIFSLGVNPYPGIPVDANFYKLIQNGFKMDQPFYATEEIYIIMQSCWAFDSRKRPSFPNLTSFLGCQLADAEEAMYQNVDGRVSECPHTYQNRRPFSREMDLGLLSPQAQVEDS
Description: Flt3 enzyme activity assay (Caliper LC3000 mobility shift). As to conditions: 350 uM ATP (Km), 3 nM Flt3, 90 minutes at RT. The protocol:
as §1
Flt3 assay: The peptide substrate at 1 uM (FITC-AHA-UEAIYAAPFAKKK-CONH2; synthesized at Tufts University, Boston, Mass.) was incubated with 350 uM of ATP, corresponding to the Michaelis-Menten (Km) constant of the enzyme/substrate reaction, and 3 nM of Flt3 (BPS Bioscience; San Diego, Calif.; Cat. No. 40225) for 90 minutes at RT. After 90 minutes, the reaction was stopped by the addition of 10 mM EDTA. The substrate and product were then separated on the LC3000.

Drawing on US20110282056A1, “PROTEIN KINASE INHIBITORS AND USE THEREOF” (priority 2008, published 2011), this text covers IC50 for 36 molecules.

Some results are limits rather than exact numbers.

T1 sequence (P35916 25-1363): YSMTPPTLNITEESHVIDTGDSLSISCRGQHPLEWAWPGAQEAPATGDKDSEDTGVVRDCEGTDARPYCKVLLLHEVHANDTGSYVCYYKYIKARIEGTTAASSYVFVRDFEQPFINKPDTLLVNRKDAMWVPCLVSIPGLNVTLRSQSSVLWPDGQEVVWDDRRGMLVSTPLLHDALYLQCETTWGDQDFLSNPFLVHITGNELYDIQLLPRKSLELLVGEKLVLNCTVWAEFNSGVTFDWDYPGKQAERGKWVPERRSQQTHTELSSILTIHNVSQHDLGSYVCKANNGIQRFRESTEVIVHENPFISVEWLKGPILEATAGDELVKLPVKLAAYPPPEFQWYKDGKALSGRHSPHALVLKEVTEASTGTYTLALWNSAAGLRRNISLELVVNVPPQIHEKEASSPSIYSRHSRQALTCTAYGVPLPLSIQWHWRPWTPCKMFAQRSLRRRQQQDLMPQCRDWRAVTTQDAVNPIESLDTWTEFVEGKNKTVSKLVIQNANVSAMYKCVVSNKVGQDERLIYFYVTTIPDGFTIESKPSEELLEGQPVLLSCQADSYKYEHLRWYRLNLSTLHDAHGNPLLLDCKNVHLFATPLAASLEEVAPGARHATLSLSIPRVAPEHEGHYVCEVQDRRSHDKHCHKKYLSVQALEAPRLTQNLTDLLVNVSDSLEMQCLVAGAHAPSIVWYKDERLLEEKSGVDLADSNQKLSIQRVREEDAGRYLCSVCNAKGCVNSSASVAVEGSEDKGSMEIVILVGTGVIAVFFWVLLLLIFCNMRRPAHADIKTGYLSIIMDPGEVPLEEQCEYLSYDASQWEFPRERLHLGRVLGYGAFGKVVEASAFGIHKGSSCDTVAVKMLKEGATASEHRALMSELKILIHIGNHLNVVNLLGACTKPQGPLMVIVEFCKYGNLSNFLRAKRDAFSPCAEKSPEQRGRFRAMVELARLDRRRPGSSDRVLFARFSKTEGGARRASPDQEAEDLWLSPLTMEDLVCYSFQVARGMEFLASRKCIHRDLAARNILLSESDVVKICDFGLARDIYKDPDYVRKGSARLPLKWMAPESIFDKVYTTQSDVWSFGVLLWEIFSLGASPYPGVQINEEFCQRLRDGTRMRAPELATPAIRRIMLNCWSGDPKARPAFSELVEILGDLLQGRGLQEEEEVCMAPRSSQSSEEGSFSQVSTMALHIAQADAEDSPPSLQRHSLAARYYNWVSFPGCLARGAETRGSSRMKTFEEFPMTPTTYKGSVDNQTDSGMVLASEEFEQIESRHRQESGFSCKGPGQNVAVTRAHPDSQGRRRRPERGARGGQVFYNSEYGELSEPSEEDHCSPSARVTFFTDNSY
T2 sequence (P35968 20-1356): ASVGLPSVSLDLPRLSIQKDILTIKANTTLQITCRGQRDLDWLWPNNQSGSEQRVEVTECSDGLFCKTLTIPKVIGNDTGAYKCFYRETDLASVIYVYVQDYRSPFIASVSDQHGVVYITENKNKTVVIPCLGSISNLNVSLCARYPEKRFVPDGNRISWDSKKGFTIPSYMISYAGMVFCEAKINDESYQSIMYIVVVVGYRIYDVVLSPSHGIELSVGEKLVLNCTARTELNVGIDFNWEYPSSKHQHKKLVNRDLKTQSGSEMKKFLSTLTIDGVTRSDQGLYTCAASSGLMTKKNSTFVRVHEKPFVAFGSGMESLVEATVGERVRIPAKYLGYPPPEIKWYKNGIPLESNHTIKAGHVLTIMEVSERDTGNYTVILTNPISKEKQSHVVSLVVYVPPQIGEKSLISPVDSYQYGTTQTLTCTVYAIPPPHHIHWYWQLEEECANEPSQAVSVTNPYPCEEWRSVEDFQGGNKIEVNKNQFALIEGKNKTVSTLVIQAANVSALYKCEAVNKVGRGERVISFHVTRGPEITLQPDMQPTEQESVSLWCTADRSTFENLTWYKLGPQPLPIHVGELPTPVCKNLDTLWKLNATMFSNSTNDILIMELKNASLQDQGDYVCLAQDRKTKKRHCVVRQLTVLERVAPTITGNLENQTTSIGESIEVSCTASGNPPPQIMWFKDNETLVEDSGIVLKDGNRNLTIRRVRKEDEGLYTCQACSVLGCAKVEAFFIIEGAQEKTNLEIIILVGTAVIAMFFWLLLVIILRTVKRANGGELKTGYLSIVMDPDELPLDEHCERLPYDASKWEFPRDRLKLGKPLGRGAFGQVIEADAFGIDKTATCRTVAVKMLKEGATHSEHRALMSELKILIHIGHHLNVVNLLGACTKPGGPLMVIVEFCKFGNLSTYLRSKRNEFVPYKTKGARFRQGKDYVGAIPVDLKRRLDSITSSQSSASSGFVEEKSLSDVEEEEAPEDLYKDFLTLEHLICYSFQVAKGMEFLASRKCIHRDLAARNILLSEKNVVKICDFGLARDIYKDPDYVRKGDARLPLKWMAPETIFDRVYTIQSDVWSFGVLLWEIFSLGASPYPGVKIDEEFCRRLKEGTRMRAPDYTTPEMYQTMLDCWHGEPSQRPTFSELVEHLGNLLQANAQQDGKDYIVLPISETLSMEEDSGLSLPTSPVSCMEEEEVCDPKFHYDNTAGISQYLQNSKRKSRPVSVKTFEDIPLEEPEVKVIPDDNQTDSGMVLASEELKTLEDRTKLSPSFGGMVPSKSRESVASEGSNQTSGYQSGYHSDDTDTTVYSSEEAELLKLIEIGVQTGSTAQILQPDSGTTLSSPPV

As a reminder, the IC50 is the concentration that gives 50% inhibition. On to `COC(=O)c1ccccc1C#Cc1ccnc2[nH]ccc12` [compound 43], for which the values for the IC50 in assay [1], in assay [2] and in assay [3] were 100 to 1000 nM, > 1000 nM and 100 to 1000 nM, respectively.
For the molecule `C(#Cc1ccnc2[nH]ccc12)c1ccoc1` [compound 44], the IC50 is 100 to 1000 nM in assay [1], > 1000 nM in assay [2] and > 1000 nM in assay [3].
As to `CC(=O)Nc1ccccc1C#Cc1ccnc2[nH]ccc12` [compound 45], the IC50 in assay [1] was 100 to 1000 nM; in assay [2], > 1000 nM; in assay [3], > 1000 nM.
For `COc1cncc(C#Cc2ccnc3[nH]ccc23)c1` [compound 46], the IC50 in assay [1], in assay [2] and in assay [3] was 100 to 1000 nM each time.
For `C(#Cc1ccnc2[nH]ccc12)c1cccc(N2CCOCC2)c1` [compound 47], the results for the IC50 in assay [1], in assay [2] and in assay [3] were 100 to 1000 nM, > 1000 nM and > 1000 nM, respectively.
As to `FC(F)(F)c1ccccc1C#Cc1ccnc2[nH]ccc12` [compound 48], the 50% inhibitory concentration (IC50) in assay [1] is 100 to 1000 nM; in assay [2], > 1000 nM; in assay [3] it was > 1000 nM.
For the molecule `COc1ccc(F)cc1C#Cc1ccnc2[nH]ccc12` [compound 49], the IC50 in assay [1] is 100 to 1000 nM; in assay [2], > 1000 nM; in assay [3], > 1000 nM.
Take `CC(=O)c1cccc(C#Cc2ccnc3[nH]ccc23)c1` [compound 50]: the IC50 in assay [1] was 100 to 1000 nM; in assay [2], > 1000 nM; in assay [3], 100 to 1000 nM.
Take `COc1cccc(C#Cc2ccnc3[nH]ccc23)c1` [compound 51]: the IC50 in assay [1] was 100 to 1000 nM; in assay [2], > 1000 nM; in assay [3], 100 to 1000 nM.
For the molecule `COc1ccccc1C#Cc1ccnc2[nH]ccc12` [compound 52], the IC50 is 100 to 1000 nM in assay [1], > 1000 nM in assay [2] and > 1000 nM in assay [3].
Take `C(#Cc1ccnc2[nH]ccc12)c1cccc(-c2cc[nH]n2)c1` [compound 53]: the IC50 was 100 to 1000 nM in assay [1], > 1000 nM in assay [2] and > 1000 nM in assay [3].
Consider `CCNC(=O)/C=C/c1cccc(C#Cc2ccnc3[nH]ccc23)c1` [compound 54], for which the 50% inhibitory concentration (IC50) was 100 to 1000 nM in assay [1], > 1000 nM in assay [2] and > 1000 nM in assay [3].
Turning to `COC(=O)c1cccc(C#Cc2ccnc3[nH]ccc23)c1` [compound 55], the IC50 in assay [1] was 100 to 1000 nM; in assay [2], > 1000 nM; in assay [3], > 1000 nM.
Regarding `O=C(NCc1ccccc1C#Cc1ccnc2[nH]ccc12)C(F)(F)F` [compound 56], the IC50 in assay [1] was 100 to 1000 nM; in assay [2] it was > 1000 nM; in assay [3], > 1000 nM.
`Cc1ccncc1C#Cc1ccnc2[nH]ccc12` [compound 57]: the half-inhibitory concentration (IC50) in assay [1], in assay [2] and in assay [3] was 100 to 1000 nM each time.
With `C(#Cc1ccnc2[nH]ccc12)c1ccccc1-n1cccc1` [compound 58], the IC50 in assay [1] is 100 to 1000 nM; in assay [2], > 1000 nM; in assay [3] it was > 1000 nM.
As for `Fc1cccc(C#Cc2ccnc3[nH]ccc23)c1` [compound 59], the values for the IC50 in assay [1], in assay [2] and in assay [3] were 100 to 1000 nM, > 1000 nM and > 1000 nM, respectively.
Take `C(#Cc1ccnc2[nH]ccc12)c1cccc2[nH]ccc12` [compound 60]: the IC50 was 100 to 1000 nM in assay [1], > 1000 nM in assay [2] and > 1000 nM in assay [3].
As to `N#CCc1ccc(C#Cc2ccnc3[nH]ccc23)cc1` [compound 61], the half-inhibitory concentration (IC50) was 100 to 1000 nM in assay [1], > 1000 nM in assay [2] and 100 to 1000 nM in assay [3].
With `Cc1cccc(C#Cc2ccnc3[nH]ccc23)c1` [compound 62], the half-inhibitory concentration (IC50) in assay [1] is 100 to 1000 nM; in assay [2], > 1000 nM; in assay [3], > 1000 nM.
In the case of `COc1cccc(C#Cc2ccnc3[nH]ccc23)n1` [compound 63], the IC50 in assay [1] was 100 to 1000 nM; in assay [2], > 1000 nM; in assay [3], > 1000 nM.
Turning to `CCc1ccccc1C#Cc1ccnc2[nH]ccc12` [compound 64], the IC50 is 100 to 1000 nM in assay [1], > 1000 nM in assay [2] and > 1000 nM in assay [3].
Turning to `C=Cc1cccc(C#Cc2ccnc3[nH]ccc23)c1` [compound 65], the concentration for half-maximal inhibition (IC50) is 100 to 1000 nM in assay [1], > 1000 nM in assay [2] and > 1000 nM in assay [3].
For the molecule `Cn1cncc1C#Cc1ccnc2[nH]ccc12` [compound 66], the concentration for half-maximal inhibition (IC50) in assay [1], in assay [2] and in assay [3] was 100 to 1000 nM each time.
Take `CC(=O)Nc1ccc(C#Cc2ccnc3[nH]ccc23)cc1` [compound 67]: the results for the IC50 in assay [1], in assay [2] and in assay [3] were 100 to 1000 nM, > 1000 nM and > 1000 nM, respectively.
Take `Cc1ccnc(C#Cc2ccnc3[nH]ccc23)c1` [compound 68]: the IC50 in assay [1] is 100 to 1000 nM; in assay [2], > 1000 nM; in assay [3], > 1000 nM.
As to `Cc1ccccc1C#Cc1ccnc2[nH]ccc12` [compound 69], the IC50 in assay [1] is 100 to 1000 nM; in assay [2], > 1000 nM; in assay [3], > 1000 nM.
Take `Cc1ccc(C#Cc2ccnc3[nH]ccc23)cc1` [compound 70]: the IC50 in assay [1] is 100 to 1000 nM; in assay [2], > 1000 nM; in assay [3] it was > 1000 nM.
Consider `Nc1cccc(C#Cc2cnc3[nH]ccc3c2)c1` [compound 71], for which the values for the half-inhibitory concentration (IC50) in assay [1], in assay [2] and in assay [3] were 100 to 1000 nM, > 1000 nM and > 1000 nM, respectively.
Regarding `C(#Cc1ccnc2[nH]ccc12)c1ccc2c(c1)OCO2` [compound 72], the IC50 in assay [1] is 100 to 1000 nM; in assay [2], > 1000 nM; in assay [3] it was > 1000 nM.
Take `COc1ccc(OC)c(C#Cc2ccnc3[nH]ccc23)c1` [compound 73]: the IC50 is 100 to 1000 nM in assay [1], > 1000 nM in assay [2] and > 1000 nM in assay [3].
Turning to `COc1cc(C#Cc2ccnc3[nH]ccc23)cc(OC)c1` [compound 74], the 50% inhibitory concentration (IC50) in assay [1], in assay [2] and in assay [3] was > 1000 nM each time.
With `COc1ccc(CNC(=O)Cc2ccccc2C#Cc2ccnc3[nH]ccc23)cc1` [compound 75], the IC50 in assay [1], in assay [2] and in assay [3] was > 1000 nM throughout.
For `Cc1cccc(C#Cc2ccnc3[nH]ccc23)n1` [compound 76], the IC50 in assay [1], in assay [2] and in assay [3] was > 1000 nM each time.
Turning to `Cc1cc(C)cc(C#Cc2ccnc3[nH]ccc23)c1` [compound 77], the IC50 in assay [1], in assay [2] and in assay [3] was > 1000 nM in each case.
For `FC(F)(F)Oc1ccccc1C#Cc1ccnc2[nH]ccc12` [compound 78], the IC50 in assay [1], in assay [2] and in assay [3] was > 1000 nM in each case.
